Experiments:
[1] = test system: rats; test: Electroconvulsive threshold (ECT) test; type: in vivo, rat
[2] = test system: rats; test: Haloperidol-induced catalepsy (HIC) model; type: in vivo, rat; conditions: positive control 8 mg/kg
[3] = test system: mice (strain NLMN); test: Forced swim test; type: in vivo, mouse; conditions: positive control 32 mg/kg IP

Cn1c(=O)c2[nH]cnc2n(C)c1=O [theophylline, Theophylline]
proconvulsant activity (electroconvulsive threshold) ([1]; positive control 128 mg/kg p.o.): showed the expected pro- and anticonvulsant activities

CN1C(=O)CN=C(c2ccccc2)c2cc(Cl)ccc21 [diazepam]
anticonvulsant activity (electroconvulsive threshold) ([1]; positive control 16 mg/kg p.o.): showed the expected pro- and anticonvulsant activities

CC(N)Cc1ccccc1 (stereo not shown) [amphetamine]
anticataleptic activity (catalepsy score) [2]: showed the expected robust anticataleptic activity

CN(C)CCCN1c2ccccc2CCc2ccccc21 [imipramine]
antidepressant activity (immobility time) [3]: showed the expected antidepressant activity

From patent US10420768B2, “Pyrrolopyrimidine derivatives as NR2B NMDA receptor antagonists” (Rugen Holdings (Cayman) Limited, priority 2014, dated 2019)
